From patent US7504400B2, “MTP inhibiting aryl piperydines or piperazines substituted with 5-membered heterocycles” (Janssen Pharmaceutica N.V., priority 2004, dated 2009)

The compounds below were run on Secretion of ApoB (assay: Quantification of the secretion of ApoB in HepG2 cells). Settings: Homo sapiens, HepG2, 24 h, 24 hours of incubation with test compound, immunoprecipitation of apoB from medium, read-out: pIC50 value (=-log IC50 value), secretion of ApoB (converted).
Assay type: cell-based
Procedure: HepG2 cells were cultured in 24-well plates in MEM Rega 3 containing 10% fetal calf serum. At 70% confluency, the medium was changed and the test compound or carrier (DMSO, 0.4% final concentration) was added. After 24 hours of incubation, the medium was transferred to Eppendorf tubes and cleared by centrifugation. A sheep antibody directed against either apoB was added to the supernatant and the mixture was kept at 8° C. for 24 hours. Then, rabbit anti-sheep antibody was added and the immune complex was allowed to precipitate for 24 hours at 8° C. The immunoprecipitate was pelleted by centrifugation for 25 minutes at 1320 g and washed twice with a buffer containing 40 mM Mops, 40 mM NaH2PO4, 100 mM NaF, 0.2 mM DTT, 5 mM EDTA, 5 mM EGTA, 1% Triton-X-100, 0.5% sodium deoxycholate (DOC), 0.1% SDS, 0.2 μM leupeptin and 0.2 μM PMSF. Radioactivity in the pellet was quantified by liquid scintillation-counting. The IC50 values are usually converted to pIC50 values (=−log IC50 value) for ease of use.
CCNC(=O)C(c1ccccc1)N1CCN(c2ccc(-n3cnn(C(C)C)c3=O)cn2)CC1 (stereo not shown) [Compound 46] was tested, and the IC50 was 316 to 3160 nM. For CCCNC(=O)C(c1ccccc1)N1CCN(c2ccc(-n3cnn(C(C)C)c3=O)cn2)CC1 (stereo not shown) [Compound 47], the IC50 was 316 to 3160 nM. Work on CC(C)n1ncn(-c2ccc(N3CCN(C(C(=O)NCc4ccccc4)c4ccccc4)CC3)nc2)c1=O (stereo not shown) [Compound 48] yielded an IC50 of 31.6 to 316 nM. With C=CCNC(=O)C(c1ccccc1)N1CCN(c2ccc(-n3cnn(C(C)C)c3=O)cn2)CC1 (stereo not shown) [Compound 49] the IC50 was 316 to 3160 nM. CC(C)n1ncn(-c2ccc(N3CCN(C(C(=O)NCCC#N)c4ccccc4)CC3)nc2)c1=O (stereo not shown) [Compound 50] gave an IC50 of 316 to 3160 nM. For CCCCCn1ncn(-c2ccc(N3CCC(C(C(=O)Nc4ccccc4)c4ccccc4)CC3)cc2)c1=O (stereo not shown) [Compound 51], the IC50 was 31.6 to 316 nM. C=CCn1ncn(-c2ccc(N3CCC(C(C(=O)Nc4ccccc4)c4ccccc4)CC3)cc2)c1=O (stereo not shown) [Compound 52] gave an IC50 of 316 to 3160 nM. CCn1ncn(-c2ccc(N3CCC(C(C(=O)Nc4ccccc4)c4ccccc4)CC3)cc2)c1=O (stereo not shown) [Compound 53] gave an IC50 of 316 to 3160 nM. Cc1ccc(C)c(NC(=O)C(c2ccccc2)N2CCN(c3ccc(-n4cnn(C(C)C)c4=O)cc3)CC2)c1 (stereo not shown) [Compound 54] gave an IC50 of 31.6 to 316 nM. Compound CC(C)n1ncn(-c2ccc(N3CCN(C(C(=O)Nc4ccc(Cl)cc4)c4ccccc4)CC3)cc2)c1=O (stereo not shown) [Compound 55] has an IC50 of 31.6 to 316 nM. CC(C)n1ncn(-c2ccc(N3CCN(C(C(=O)Nc4ccccc4O)c4ccccc4)CC3)cc2)c1=O (stereo not shown) [Compound 56] showed an IC50 of 316 to 3160 nM. In the case of Cc1cccc(NC(=O)C(c2ccccc2)N2CCN(c3ccc(-n4cnn(C(C)C)c4=O)cc3)CC2)c1 (stereo not shown) [Compound 57], the IC50 is reported as 31.6 to 316 nM. For CC(C)n1ncn(-c2ccc(N3CCN(C(C(=O)Nc4cccc(C(F)(F)F)c4)c4ccccc4)CC3)cc2)c1=O (stereo not shown) [Compound 58], the IC50 was 31.6 to 316 nM. With Cc1ccc(NC(=O)C(c2ccccc2)N2CCN(c3ccc(-n4cnn(C(C)C)c4=O)cc3)CC2)c(C)c1 (stereo not shown) [Compound 59] the IC50 was 31.6 to 316 nM. For Cc1cc(C)cc(NC(=O)C(c2ccccc2)N2CCN(c3ccc(-n4cnn(C(C)C)c4=O)cc3)CC2)c1 (stereo not shown) [Compound 60], the IC50 was 31.6 to 316 nM. In the case of COc1cccc(NC(=O)C(c2ccccc2)N2CCN(c3ccc(-n4cnn(C(C)C)c4=O)cc3)CC2)c1 (stereo not shown) [Compound 61], the IC50 is reported as 31.6 to 316 nM. CC(C)n1ncn(-c2ccc(N3CCN(C(C(=O)Nc4ccc(F)cc4F)c4ccccc4)CC3)cc2)c1=O (stereo not shown) [Compound 62] showed an IC50 of 31.6 to 316 nM. CC(C)n1ncn(-c2ccc(N3CCN(C(C(=O)Nc4ccc5c(c4)OCCO5)c4ccccc4)CC3)cc2)c1=O (stereo not shown) [Compound 63] was tested, and the IC50 was 31.6 to 316 nM. COc1cc(NC(=O)C(c2ccccc2)N2CCN(c3ccc(-n4cnn(C(C)C)c4=O)cc3)CC2)cc(C(F)(F)F)c1 (stereo not shown) [Compound 64] gave an IC50 of 31.6 to 316 nM. With CC(C)n1ncn(-c2ccc(N3CCN(C(C(=O)NCc4ccco4)c4ccccc4)CC3)cc2)c1=O (stereo not shown) [Compound 65] the IC50 was 316 to 3160 nM. In the case of CCOC(=O)CNC(=O)C(c1ccccc1)N1CCN(c2ccc(-n3cnn(C(C)C)c3=O)cc2)CC1 (stereo not shown) [Compound 66], the IC50 is reported as 31.6 to 316 nM. In the case of CC(C)n1ncn(-c2ccc(N3CCN(C(C(=O)NCCNc4cccc5ccccc45)c4ccccc4)CC3)cc2)c1=O (stereo not shown) [Compound 67], the IC50 is reported as 316 to 3160 nM. With CC(C)n1ncn(-c2ccc(N3CCN(C(C(=O)NCC(C)(c4ccccc4)c4ccccc4)c4ccccc4)CC3)cc2)c1=O (stereo not shown) [Compound 68] the IC50 was 316 to 3160 nM. For CC(C)n1ncn(-c2ccc(N3CCN(C(C(=O)NC4Cc5ccccc5C4)c4ccccc4)CC3)cc2)c1=O (stereo not shown) [Compound 69], the IC50 was 31.6 to 316 nM. For CC(C)n1ncn(-c2ccc(N3CCN(C(C(=O)NCc4ccccn4)c4ccccc4)CC3)cc2)c1=O (stereo not shown) [Compound 70], the IC50 was 316 to 3160 nM. COc1ccc(CNC(=O)C(c2ccccc2)N2CCN(c3ccc(-n4cnn(C(C)C)c4=O)cc3)CC2)cc1 (stereo not shown) [Compound 71] gave an IC50 of 316 to 3160 nM. In the case of CC(C)n1ncn(-c2ccc(N3CCN(C(C(=O)NCCc4ccccn4)c4ccccc4)CC3)cc2)c1=O (stereo not shown) [Compound 72], the IC50 is reported as 316 to 3160 nM. Work on CC(C)n1ncn(-c2ccc(N3CCN(C(C(=O)NCc4ccc(S(C)(=O)=O)cc4)c4ccccc4)CC3)cc2)c1=O (stereo not shown) [Compound 73] yielded an IC50 of 316 to 3160 nM.
